The results in this text go back to ChEMBL document CHEMBL1128558, “Effect of bridge region variation on antifolate and antitumor activity of classical 5-substituted 2,4-diaminofuro[2,3-d]pyrimidines” (J Med Chem, 1995).

The target in data set [1] is Dihydrofolate reductase (Lactobacillus casei, UniProt P00381).
In data set [2] the target is T1, Thymidylate synthase (Lactobacillus casei, UniProt P00469).
T1 sequence (P00469 whole entry): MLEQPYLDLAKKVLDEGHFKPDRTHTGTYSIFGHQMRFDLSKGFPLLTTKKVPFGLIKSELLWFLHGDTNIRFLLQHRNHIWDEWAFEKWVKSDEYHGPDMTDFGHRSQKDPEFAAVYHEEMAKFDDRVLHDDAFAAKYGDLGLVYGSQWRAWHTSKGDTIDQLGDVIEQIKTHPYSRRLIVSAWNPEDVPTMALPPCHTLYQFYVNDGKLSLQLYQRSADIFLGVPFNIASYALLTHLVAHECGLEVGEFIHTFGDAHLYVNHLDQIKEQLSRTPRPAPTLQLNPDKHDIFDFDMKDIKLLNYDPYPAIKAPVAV
Kind of data set: Inhibitory concentration against Lactobacillus casei TS (Thymidylate synthase). Further details: species or system Lacticaseibacillus casei.

In data set [3] the target is T2, Dihydrofolate reductase (Homo sapiens, UniProt P00374).
T2 sequence (P00374 whole entry): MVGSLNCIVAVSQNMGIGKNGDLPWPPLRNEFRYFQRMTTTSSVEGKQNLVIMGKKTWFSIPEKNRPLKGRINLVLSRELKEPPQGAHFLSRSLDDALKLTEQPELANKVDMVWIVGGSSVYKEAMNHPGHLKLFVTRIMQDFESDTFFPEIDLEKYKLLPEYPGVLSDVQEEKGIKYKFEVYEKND
Kind of data set: Inhibitory concentration against recombinant human DHFR(Dihydro folate reductase).

Data set [4] has as its target Thymidylate synthase (Homo sapiens, UniProt P04818). Put plainly: Inhibitory concentration against recombinant human TS (Thymidylate synthase).
The test system of data set [5] is A253 cell line. Kind of data set: The compound was tested for Growth inhibition of the human squamous cell carcinoma A253 cells. The class given is functional, cell-based.
Data set [6] relates to FaDu. Put plainly: Protection by 10 uM LV(leucovorin) against the growth inhibition of FaDu cells induced by the compound. It counts as functional, Homo sapiens. Further details: scale not given: the % may be the effect or the level left.
Data set [7] relates to CCRF-CEM. Put plainly: Compound was tested for Growth inhibition of the Human T-lymphoblastic Leukemia cell line CCRF-CEM. It counts as functional, cell-based.
Data set [8] deals with FaDu. Put plainly: Protection by 50 uM Hx (Hypoxanthine) against the growth inhibition of FaDu cells induced by the compound. The class given is functional, Homo sapiens. Further details: scale not given: the % may be the effect or the level left.
The subject of data set [9] is CCRF-CEM. Kind of data set: The compound was tested for Growth inhibition of Methotrexate-resistant human T-lymphoblastic leukemia cell line CCRF-CEM(sub line R30dm). It counts as functional, cell-based.
A short description of data set [10]: Ratio of Vmax to Km.
For data set [11], the system named is FaDu. Kind of data set: Protection by combination of 50 uM Hx (Hypoxanthine) + 40 uM TdR(thymidine) against the growth inhibition of FaDu cells induced by the compound. It counts as functional, Homo sapiens. Details: scale not given: the % may be the effect or the level left.
Data set [12] relates to FaDu. Kind of data set: The compound was tested for growth inhibition against FaDu cells. The class given is functional, Homo sapiens. Details: scale not given: the % may be the effect or the level left.
For data set [13], the system named is FaDu. Put plainly: Protection by 40 uM TdR(thymidine) against the growth inhibition of FaDu cells induced by the compound. The class given is functional, Homo sapiens. Details: scale not given: the % may be the effect or the level left.
In data set [14] the test system is FaDu. Kind of data set: The compound was tested for Growth inhibition of the human squamous cell carcinoma FaDu cells. It counts as functional, cell-based.
Data set [15] concerns CCRF-CEM. Put plainly: he compound was tested for Growth inhibition of the Human T-lymphoblastic Leukemia cell line CCRF-CEM. The class given is functional, cell-based.
Substrate in data set [16]: Nc1nc(N)c2nc(CNc3ccc(C(=O)N[C@@H](CCC(=O)O)C(=O)O)cc3)cnc2n1
Put plainly: (§1) Vmax value for substrate activity against CCRF-CEM human leukemia cell Folyl-polyglutamate synthase. It counts as cell-based.

Substrate in data set [17]: Nc1nc(N)c2c(CNCc3ccc(C(=O)N[C@@H](CCC(=O)O)C(=O)O)cc3)coc2n1
The data set is described as §1. It counts as cell-based.

Substrate in data set [18]: Nc1nc(N)c2c(CCc3ccc(C(=O)N[C@@H](CCC(=O)O)C(=O)O)cc3)coc2n1
The description is as §1. It counts as cell-based.

Substrate in data set [19]: Nc1nc(N)c2nc(CNc3ccc(C(=O)N[C@@H](CCC(=O)O)C(=O)O)cc3)cnc2n1
Kind of data set: (§2) Substrate activity against CCRF-CEM human leukemia cell Folyl-polyglutamate synthase.

Substrate in data set [20]: Nc1nc(N)c2c(CCc3ccc(C(=O)N[C@@H](CCC(=O)O)C(=O)O)cc3)coc2n1
Described as §2.

Where only a bound is given, the exact number is not on record here.

Dihydrofolate reductase (Lactobacillus casei, UniProt P00381), sequence (P00381 whole entry): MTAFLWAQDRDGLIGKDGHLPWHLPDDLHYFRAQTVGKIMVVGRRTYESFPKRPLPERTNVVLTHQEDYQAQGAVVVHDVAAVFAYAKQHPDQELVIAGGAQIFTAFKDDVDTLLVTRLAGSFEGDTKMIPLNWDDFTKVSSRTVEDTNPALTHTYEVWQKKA
Thymidylate synthase (Homo sapiens, UniProt P04818), sequence (P04818 whole entry): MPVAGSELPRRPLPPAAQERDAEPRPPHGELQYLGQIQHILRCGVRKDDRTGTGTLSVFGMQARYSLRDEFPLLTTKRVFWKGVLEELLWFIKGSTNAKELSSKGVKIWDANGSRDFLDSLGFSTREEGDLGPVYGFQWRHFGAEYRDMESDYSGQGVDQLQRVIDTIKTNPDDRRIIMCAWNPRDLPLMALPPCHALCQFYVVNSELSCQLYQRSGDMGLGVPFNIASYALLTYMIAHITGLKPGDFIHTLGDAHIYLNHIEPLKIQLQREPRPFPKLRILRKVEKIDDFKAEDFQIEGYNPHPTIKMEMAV

The term IC50 denotes the midpoint of a concentration-inhibition curve. `Nc1nc(N)c2c(CNc3ccc(C(=O)N[C@@H](CCC(=O)O)C(=O)O)cc3)coc2n1`: the half-maximal inhibitory concentration (IC50) was 560 nM in [1], > 200000 nM in data set [2], 450 nM in [3] and > 200000 nM in data set [4].
A word on the EC50: it is the concentration needed to bring the measured effect to its halfway point. On to `Nc1nc(N)c2c(CCc3ccc(C(=O)N[C@@H](CCC(=O)O)C(=O)O)cc3)coc2n1`, for which the EC50 was found to be 540 nM in [5], 290 nM in [7], 4250 nM in data set [9] and 180 nM in data set [14]. Besides, the Control in data set [6] was found to be 105%; in data set [8], 4%; in data set [11], 107%; in [12] it was 7%; in [13] it was 14%. In [2], the concentration for half-maximal inhibition (IC50) turned out to be 200000 nM. In data set [10], the Ratio was determined as 0.07.
With `Nc1nc(N)c2nc(CNc3ccc(C(=O)N[C@@H](CCC(=O)O)C(=O)O)cc3)cnc2n1`, in data set [10], the Ratio came to 0.21.
Regarding `Nc1nc(N)c2c(CNCc3ccc(C(=O)N[C@@H](CCC(=O)O)C(=O)O)cc3)coc2n1`, the IC50 in [1], in [2] and in data set [3] was > 200000 nM throughout. The EC50 in data set [15] was determined as 48000 nM.
With `CN(Cc1cnc2nc(N)nc(N)c2n1)c1ccc(C(=O)N[C@@H](CCC(=O)O)C(=O)O)cc1` [METHOTREXATE], the EC50 in data set [5] was determined as 13 nM; in data set [14], 17 nM. Further, the Control is on record as 96% in data set [6], 6% in [8], 2% in data set [12] and 8% in data set [13].

B1: Folylpolyglutamate synthase, mitochondrial (Homo sapiens), Q05932 (protein)
chain: MSRARSHLRAALFLAAASARGITTQVAARRGLSAWPVPQEPSMEYQDAVRMLNTLQTNAGYLEQVKRQRGDPQTQLEAMELYLARSGLQVEDLDRLNIIHVTGTKGKGSTCAFTECILRSYGLKTGFFSSPHLVQVRERIRINGQPISPELFTKYFWRLYHRLEETKDGSCVSMPPYFRFLTLMAFHVFLQEKVDLAVVEVGIGGAYDCTNIIRKPVVCGVSSLGIDHTSLLGDTVEKIAWQKGGIFKQGVPAFTVLQPEGPLAVLRDRAQQISCPLYLCPMLEALEEGGPPLTLGLEGEHQRSNAALALQLAHCWLQRQDRHGAGEPKASRPGLLWQLPLAPVFQPTSHMRLGLRNTEWPGRTQVLRRGPLTWYLDGAHTASSAQACVRWFRQALQGRERPSGGPEVRVLLFNATGDRDPAALLKLLQPCQFDYAVFCPNLTEVSSTGNADQQNFTVTLDQVLLRCLEHQQHWNHLDEEQASPDLWSAPSPEPGGSASLLLAPHPPHTCSASSLVFSCISHALQWISQGRDPIFQPPSPPKGLLTHPVAHSGASILREAAAIHVLVTGSLHLVGGVLKLLEPALSQ
As usually defined, the Km is the substrate concentration at which the rate is half of its maximum. With B1, the figures for the Vmax in [16], in data set [17] and in data set [18] were 1, 0.6 and 0.65, respectively. The Michaelis-Menten constant (Km) stood at 4.8 µM in [19] and 8.5 µM in [20].
